Results reported in patent US20120184613A1, “SULFUR-CONTAINING COMPOUND AND USE THEREOF” (SUMITOMO CHEMICAL COMPANY, LIMITED, priority 2008, published 2012).

Tested on: Blattalla germanica
Test: Test Example 3: filter paper with sucrose bait, death rate of Blattalla germanica
Type: in vivo
Conditions: 500 ppm test solution, 0.7 ml on filter paper; 2 male imagoes; after 6 days
Experimental: A formulation of any one of the present compounds (3) and (4) obtained according to Formulation Example 5 was diluted with water to prepare a test solution having 500 ppm of the active ingredient.
A filter paper having a diameter of 5.5 cm was spread on the bottom of a polyethylene cup having a diameter of 5.5 cm and 0.7 ml of the test solution was added dropwise onto the filter paper. As a bait, 30 mg of sucrose was uniformly placed on the filter paper. Into the polyethylene cup, 2 male imagoes of Blattalla germanica were released and the cup was sealed with a lid. After 6 days, the number of surviving or dead Blattalla germanica was counted and the death rate of the pest was calculated.

COC(C)(C)CS(=O)(=O)C(C#N)CCC(F)(F)C(F)(F)F (centres unmarked) [(4)]
pest death rate: 100%

CC(C)OCCS(=O)(=O)C(C#N)CCC(F)(F)C(F)(F)F (centres unmarked) [(3)]
pest death rate: 100%
